# Measurements from PubChem BioAssay AID248 (DTP/NCI, 2004).
# Inconclusive results and toxic doses are left out.
# System: L1210 leukemia ip in BDF1 mice, survival T/C
# Assay: NCI In Vivo Anticancer Drug Screen. Data for tumor model L1210 Leukemia (intraperitoneal) in B6D2F1 (BDF1) mice
# Details: endpoint: mean survival time, higher = longer survival
# How it was run: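 Ratio derived from survival: compound-dosed mice over vehicle-dosed mice, all bearing a transplantable tumor.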
# [1] = dose: 100.0 mg/kg/injection, schedule: Q01DX009 (ip), vehicle: Klucel (hydroxypropylcellulose) (HPC)
# [2] = dose: 200.0 mg/kg/injection, schedule: Q01DX009 (ip), vehicle: Klucel (hydroxypropylcellulose) (HPC)
# [3] = dose: 400.0 mg/kg/injection, schedule: Q01DX009 (ip), vehicle: Klucel (hydroxypropylcellulose) (HPC)
smiles,measurement,setting,value
CCCCN(C)N=Nc1c(C(N)=O)n[nH]c1C,T/C,"dose: 1.0 mg/kg/injection, schedule: Q03HX008 (ip), vehicle: Klucel (hydroxypropylcellulose) (HPC)",93 % of control
same,T/C,"dose: 2.0 mg/kg/injection, schedule: Q03HX008 (ip), vehicle: Klucel (hydroxypropylcellulose) (HPC)",99 % of control
same,T/C,"dose: 4.0 mg/kg/injection, schedule: Q03HX008 (ip), vehicle: Klucel (hydroxypropylcellulose) (HPC)",100 % of control
same,T/C,"dose: 4.0 mg/kg/injection, schedule: Q03HX016 (ip), vehicle: Klucel (hydroxypropylcellulose) (HPC)",99 % of control
same,T/C,"dose: 4.0 mg/kg/injection, schedule: Q03HX024 (ip), vehicle: Klucel (hydroxypropylcellulose) (HPC)",107 % of control
same,T/C,"dose: 8.0 mg/kg/injection, schedule: Q01DX009 (ip), vehicle: Klucel (hydroxypropylcellulose) (HPC)",102 % of control
same,T/C,"dose: 8.0 mg/kg/injection, schedule: Q03HX008 (ip), vehicle: Klucel (hydroxypropylcellulose) (HPC)",102 % of control
same,T/C,"dose: 8.0 mg/kg/injection, schedule: Q03HX016 (ip), vehicle: Klucel (hydroxypropylcellulose) (HPC)",100 % of control
same,T/C,"dose: 8.0 mg/kg/injection, schedule: Q03HX024 (ip), vehicle: Klucel (hydroxypropylcellulose) (HPC)",108 % of control
same,T/C,"dose: 8.8 mg/kg/injection, schedule: Q01DX007 (ip), vehicle: Klucel (hydroxypropylcellulose) (HPC)",114 % of control
same,T/C,"dose: 10.0 mg/kg/injection, schedule: Q01DX009 (ip), vehicle: Klucel (hydroxypropylcellulose) (HPC)",109 % of control
same,T/C,"dose: 13.2 mg/kg/injection, schedule: Q01DX007 (ip), vehicle: Klucel (hydroxypropylcellulose) (HPC)",120 % of control
same,T/C,"dose: 15.0 mg/kg/injection, schedule: Q01DX009 (ip), vehicle: Klucel (hydroxypropylcellulose) (HPC)",111 % of control
same,T/C,"dose: 16.0 mg/kg/injection, schedule: Q01DX009 (ip), vehicle: Klucel (hydroxypropylcellulose) (HPC)",114 % of control
same,T/C,"dose: 16.0 mg/kg/injection, schedule: Q03HX016 (ip), vehicle: Klucel (hydroxypropylcellulose) (HPC)",119 % of control
same,T/C,"dose: 32.0 mg/kg/injection, schedule: Q01DX001 (ip), vehicle: Klucel (hydroxypropylcellulose) (HPC)",101 % of control
same,T/C,"dose: 32.0 mg/kg/injection, schedule: Q03HX024 (ip), vehicle: Klucel (hydroxypropylcellulose) (HPC)",105 % of control
same,T/C,"dose: 32.0 mg/kg/injection, schedule: Q04DX003 (ip), vehicle: Klucel (hydroxypropylcellulose) (HPC)",105 % of control
same,T/C,"dose: 32.0 mg/kg/injection, schedule: Q08DX002 (ip), vehicle: Klucel (hydroxypropylcellulose) (HPC)",105 % of control
same,T/C,"dose: 45.0 mg/kg/injection, schedule: Q01DX009 (ip), vehicle: Klucel (hydroxypropylcellulose) (HPC)",150 % of control
same,T/C,"dose: 64.0 mg/kg/injection, schedule: Q01DX001 (ip), vehicle: Klucel (hydroxypropylcellulose) (HPC)",105 % of control
same,T/C,"dose: 64.0 mg/kg/injection, schedule: Q04DX003 (ip), vehicle: Klucel (hydroxypropylcellulose) (HPC)",119 % of control
same,T/C,"dose: 64.0 mg/kg/injection, schedule: Q08DX002 (ip), vehicle: Klucel (hydroxypropylcellulose) (HPC)",115 % of control
same,T/C,"dose: 67.5 mg/kg/injection, schedule: Q01DX009 (ip), vehicle: Klucel (hydroxypropylcellulose) (HPC)",113 % of control
same,T/C,"dose: 128.0 mg/kg/injection, schedule: Q01DX001 (ip), vehicle: Klucel (hydroxypropylcellulose) (HPC)",121 % of control
same,T/C,"dose: 128.0 mg/kg/injection, schedule: Q08DX002 (ip), vehicle: Klucel (hydroxypropylcellulose) (HPC)",124 % of control
same,T/C,"dose: 177.0 mg/kg/injection, schedule: Q01DX001 (ip), vehicle: carboxymethylcellulose (CMC)",124 % of control
O=C(O)c1cc(=O)cc(C(=O)O)[nH]1,T/C,[1],102 % of control
same,T/C,"dose: 100.0 mg/kg/injection, schedule: Q04DX003 (ip), vehicle: Klucel (hydroxypropylcellulose) (HPC)",102 % of control
same,T/C,[2],96 % of control
same,T/C,"dose: 200.0 mg/kg/injection, schedule: Q04DX003 (ip), vehicle: Klucel (hydroxypropylcellulose) (HPC)",96 % of control
same,T/C,[3],92 % of control
same,T/C,"dose: 400.0 mg/kg/injection, schedule: Q04DX003 (ip), vehicle: Klucel (hydroxypropylcellulose) (HPC)",104 % of control
C[N+](C)(C)CC(O)CC#N (stereo not given),T/C,"dose: 12.5 mg/kg/injection, schedule: Q01DX009 (ip), vehicle: Klucel (hydroxypropylcellulose) (HPC)",98 % of control
same,T/C,"dose: 25.0 mg/kg/injection, schedule: Q01DX009 (ip), vehicle: Klucel (hydroxypropylcellulose) (HPC)",96 % of control
same,T/C,"dose: 50.0 mg/kg/injection, schedule: Q01DX009 (ip), vehicle: Klucel (hydroxypropylcellulose) (HPC)",93 % of control
CCCc1nc(N)[nH]c(=O)c1CCCCc1ccccc1,T/C,"dose: 100.0 mg/kg/injection, schedule: Q04DX003 (ip), vehicle: saline",96 % of control
same,T/C,"dose: 200.0 mg/kg/injection, schedule: Q04DX003 (ip), vehicle: saline",110 % of control
same,T/C,"dose: 400.0 mg/kg/injection, schedule: Q04DX003 (ip), vehicle: saline",100 % of control
COc1ccc(C[n+]2cc([O-])on2)cc1,T/C,"dose: 12.5 mg/kg/injection, schedule: Q01DX001 (ip), vehicle: Klucel (hydroxypropylcellulose) (HPC)",101 % of control
same,T/C,"dose: 12.5 mg/kg/injection, schedule: Q04DX003 (ip), vehicle: Klucel (hydroxypropylcellulose) (HPC)",104 % of control
same,T/C,"dose: 25.0 mg/kg/injection, schedule: Q01DX001 (ip), vehicle: Klucel (hydroxypropylcellulose) (HPC)",99 % of control
same,T/C,"dose: 25.0 mg/kg/injection, schedule: Q04DX003 (ip), vehicle: Klucel (hydroxypropylcellulose) (HPC)",104 % of control
same,T/C,"dose: 28.75 mg/kg/injection, schedule: Q01DX009 (ip), vehicle: Klucel (hydroxypropylcellulose) (HPC)",114 % of control
same,T/C,"dose: 50.0 mg/kg/injection, schedule: Q01DX001 (ip), vehicle: Klucel (hydroxypropylcellulose) (HPC)",99 % of control
same,T/C,"dose: 50.0 mg/kg/injection, schedule: Q04DX003 (ip), vehicle: Klucel (hydroxypropylcellulose) (HPC)",104 % of control
same,T/C,"dose: 57.5 mg/kg/injection, schedule: Q01DX009 (ip), vehicle: Klucel (hydroxypropylcellulose) (HPC)",103 % of control
same,T/C,"dose: 75.0 mg/kg/injection, schedule: Q04DX003 (ip), vehicle: other",106 % of control
same,T/C,"dose: 100.0 mg/kg/injection, schedule: Q01DX001 (ip), vehicle: Klucel (hydroxypropylcellulose) (HPC)",102 % of control
same,T/C,"dose: 115.0 mg/kg/injection, schedule: Q01DX009 (ip), vehicle: Klucel (hydroxypropylcellulose) (HPC)",120 % of control
same,T/C,"dose: 115.0 mg/kg/injection, schedule: Q04DX003 (ip), vehicle: other",87 % of control
same,T/C,"dose: 400.0 mg/kg/injection, schedule: Q01DX001 (ip), vehicle: Klucel (hydroxypropylcellulose) (HPC)",108 % of control
O=C(CBr)CC(=O)Nc1ccccc1,T/C,"dose: 25.0 mg/kg/injection, schedule: Q01DX009 (ip), vehicle: saline with Tween-80",97 % of control
same,T/C,"dose: 50.0 mg/kg/injection, schedule: Q01DX009 (ip), vehicle: saline with Tween-80",91 % of control
COc1ccccc1NC(=O)NNC(=O)CCCC(=O)NNC(=O)Nc1ccccc1OC,T/C,"dose: 50.0 mg/kg/injection, schedule: Q01DX001 (ip), vehicle: saline",100 % of control
same,T/C,"dose: 100.0 mg/kg/injection, schedule: Q01DX001 (ip), vehicle: saline",97 % of control
same,T/C,"dose: 200.0 mg/kg/injection, schedule: Q01DX001 (ip), vehicle: saline",103 % of control
same,T/C,"dose: 400.0 mg/kg/injection, schedule: Q01DX001 (ip), vehicle: saline",97 % of control
CCC1=C(C)CC2c3cc(OC)c(OC)cc3CCN2C1 (stereo not given),T/C,"dose: 4.0 mg/kg/injection, schedule: Q04DX003 (ip), vehicle: water",110 % of control
same,T/C,"dose: 8.0 mg/kg/injection, schedule: Q04DX003 (ip), vehicle: water",103 % of control
same,T/C,"dose: 16.0 mg/kg/injection, schedule: Q04DX003 (ip), vehicle: water",104 % of control
same,T/C,"dose: 32.0 mg/kg/injection, schedule: Q04DX003 (ip), vehicle: water",108 % of control
same,T/C,"dose: 64.0 mg/kg/injection, schedule: Q04DX003 (ip), vehicle: water",106 % of control
same,T/C,"dose: 75.0 mg/kg/injection, schedule: Q01DX001 (ip), vehicle: saline",103 % of control
same,T/C,"dose: 150.0 mg/kg/injection, schedule: Q01DX001 (ip), vehicle: saline",94 % of control
same,T/C,"dose: 300.0 mg/kg/injection, schedule: Q01DX001 (ip), vehicle: saline",101 % of control
O=C(O)c1cc2ccccc2c(N=Nc2ccc(S(=O)(=O)N(CCCl)CCCl)cc2)c1O,T/C,[1],113 % of control
same,T/C,[2],103 % of control
same,T/C,[3],111 % of control
CC(=O)Nc1c(Cl)cc(-c2ccc(F)cc2)cc1Cl,T/C,"dose: 15.0 mg/kg/injection, schedule: Q01DX001 (ip), vehicle: carboxymethylcellulose (CMC)",96 % of control
same,T/C,"dose: 30.0 mg/kg/injection, schedule: Q01DX001 (ip), vehicle: carboxymethylcellulose (CMC)",94 % of control
same,T/C,"dose: 60.0 mg/kg/injection, schedule: Q01DX001 (ip), vehicle: carboxymethylcellulose (CMC)",98 % of control
Nc1ccc(S(=O)(=O)CCCl)cc1,T/C,"dose: 100.0 mg/kg/injection, schedule: Q04DX002 (ip), vehicle: Klucel (hydroxypropylcellulose) (HPC)",89 % of control
same,T/C,"dose: 200.0 mg/kg/injection, schedule: Q04DX002 (ip), vehicle: Klucel (hydroxypropylcellulose) (HPC)",100 % of control
same,T/C,"dose: 400.0 mg/kg/injection, schedule: Q04DX002 (ip), vehicle: Klucel (hydroxypropylcellulose) (HPC)",100 % of control
